In patent US20230078764A1 (Yumanity Therapeutics, Inc., priority 2019, published 2023):
Like-named read-outs stand apart in the source and are kept apart here.

Experiments:
human SCD5 = molecular target: T1, human SCD5 (Homo sapiens, UniProt Q86SK9); assay: Growth inhibition of yeast strain expressing human SCD5 as sole desaturase (OLE1 deleted), OD600 readout; type: cell-based
T1 construct: expressed in transfected cells; host or cells: yeast strain with OLE1 deleted, plasmid-borne human SCD5 (selected in SD-Ura)
T1 sequence (Q86SK9 1-330): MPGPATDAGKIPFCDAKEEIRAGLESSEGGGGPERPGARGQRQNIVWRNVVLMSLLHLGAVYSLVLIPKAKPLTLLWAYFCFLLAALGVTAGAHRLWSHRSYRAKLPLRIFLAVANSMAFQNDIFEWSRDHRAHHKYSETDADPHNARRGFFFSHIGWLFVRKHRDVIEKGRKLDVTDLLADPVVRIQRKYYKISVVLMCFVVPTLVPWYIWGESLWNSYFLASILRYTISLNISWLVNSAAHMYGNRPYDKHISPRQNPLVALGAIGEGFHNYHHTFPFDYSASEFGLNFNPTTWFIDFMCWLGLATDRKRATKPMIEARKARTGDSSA

human SCD1 = molecular target: T2, human SCD1 (Homo sapiens, UniProt O00767); assay: Growth inhibition of yeast strain expressing human SCD1 as sole desaturase (OLE1 deleted), OD600 readout; type: cell-based
T2 construct: expressed in transfected cells; host or cells: yeast strain with OLE1 deleted, plasmid-borne human SCD1 (selected in SD-Ura)
T2 sequence (O00767 1-359): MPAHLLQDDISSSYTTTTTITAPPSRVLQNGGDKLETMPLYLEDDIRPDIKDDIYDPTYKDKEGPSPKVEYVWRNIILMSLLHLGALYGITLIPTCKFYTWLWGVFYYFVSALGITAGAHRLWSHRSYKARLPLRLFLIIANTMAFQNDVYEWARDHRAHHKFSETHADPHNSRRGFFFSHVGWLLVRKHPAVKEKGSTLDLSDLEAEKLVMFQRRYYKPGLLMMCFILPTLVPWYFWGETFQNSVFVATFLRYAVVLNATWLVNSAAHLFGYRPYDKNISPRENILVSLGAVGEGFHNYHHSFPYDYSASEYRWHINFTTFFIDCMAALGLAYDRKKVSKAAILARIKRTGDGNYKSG

[1] = yeast strain expressing human SCD5 as sole desaturase, growth (OD600) after 40 h at 30° C., read-out: SCD5 IC50
[2] = yeast strain expressing human SCD1 as sole desaturase, growth (OD600) after 40 h at 30° C., read-out: SCD1 IC50

Row | IC50 (human SCD5; [1]) [µM] | IC50 (human SCD1; [2]) [µM] | Compound | IC50 (human SCD5; SCD5 IC50) [µM] | IC50 (human SCD1; SCD1 IC50) [µM]
1 | 0.276 | > 45 | CNC(=O)c1ccc(C(=O)Nc2ccc(Cc3cccc(Cl)c3)cn2)cn1 [Compound 592] | – | –
2 | – | – | Cn1cc(C(=O)Nc2ccc(CC3CCCCC3)cn2)ccc1=O [Compound 65, N-(5-(cyclohexylmethyl)pyridin-2-yl)-1-methyl-6-oxo-1,6-dihydropyridine-3-carboxamide] | 0.14 | 1.21
3 | 0.1 | 0.98 | Cn1nc(C(=O)Nc2nc(Br)c(Cc3cccc(F)c3)s2)ccc1=O [Compound 317] | – | –
4 | > 45 | > 45 | CN1N=C(C(=O)Nc2ncc(Cc3ccccc3C#N)s2)CCC1=O [Compound 380] | – | –
5 | 0.34 | 1.3 | CCc1cc(C(=O)Nc2ccc(Cc3cccc(F)c3)cn2)nn(C)c1=O [Compound 531] | – | –
6 | 4.96 | 7.37 | CN(Cc1ccc(C(=O)Nc2ccc(Cc3cccc(Cl)c3)cn2)cn1)C(=O)OC(C)(C)C [Compound 348] | – | –
7 | 0.81 | 10.7 | Cn1nc(C(=O)Nc2ccc(Cc3ccc(F)c(Cl)c3)cn2)cc1O [Compound 323] | – | –
8 | 0.02 | 0.02 | NCc1ccc(C(=O)Nc2ccc(Cc3cccc(Cl)c3)cn2)cn1 [Compound 121, 6-(aminomethyl)-N-(5-(3-chlorobenzyl)pyridin-2-yl)nicotinamide 2,2,2-trifluoroacetate] | – | –
9 | 0.01 | 0.083 | Cc1cc(C(=O)Nc2ccc(Cc3cc(F)cc(F)c3)cn2)cn(C)c1=O [Compound 676] | – | –
10 | 35.5 | > 45 | Cn1cc(NCc2ccc(Cc3cccc(F)c3)cn2)ccc1=O [Compound 352] | – | –
11 | 0.54 | > 45 | Cn1nc(C(=O)Nc2ccc(Cc3cc(C#N)ccc3F)cn2)ccc1=O [Compound 641] | – | –
12 | > 45 | > 45 | CC(O)C1CN(C(=O)Nc2ccc(Cc3cccc(Cl)c3)cn2)C1 (centres unmarked) [Compound 472] | – | –
13 | 0.48 | 1.68 | CCn1cccc(C(=O)Nc2ccc(Cc3cccc(F)c3)cn2)c1=O [Compound 332] | – | –
14 | > 45 | > 45 | CC(C)c1ccc(Cc2ccc(NC(=O)C3=NN(C)C(=O)CC3)nc2)cc1 [Compound 383] | – | –
15 | 0.58 | > 45 | CN1N=C(C(=O)Nc2ccc(COc3ccc(F)cc3F)cn2)CCC1=O [Compound 607] | – | –
16 | 2.02 | > 45 | CN1N=C(C(=O)Nc2ccc(Cc3ccc(Cl)s3)nn2)CCC1=O [Compound 247] | – | –
17 | 0.27 | 1.8 | O=C(Nc1ccc(Cc2cccc(F)c2)cn1)c1cscn1 [Compound 633] | – | –
18 | 2.51 | 7.45 | CC(C)N1N=C(C(=O)Nc2ncc(Cc3cccc(Cl)c3)s2)CCC1=O [Compound 222, N-(5-(3-Chlorobenzyl)thiazol-2-yl)-1-isopropyl-6-oxo-1,4,5,6-tetrahydropyridazine-3-carboxamide] | – | –
19 | 0.11 | 0.14 | CN1N=C(C(=O)Nc2ncc(Cc3cc(F)cc(F)c3)s2)CCC1=O [Compound 229, N-(5-(3,5-difluorobenzyl)thiazol-2-yl)-1-methyl-6-oxo-1,4,5,6-tetrahydropyridazine-3-carboxamide] | – | –
20 | 0.71 | > 45 | CN1N=C(C(=O)Nc2ccc(CC3=CCCCC3)cn2)CCC1=O [Example 34, N-(5-(cyclohexenylmethyl)pyridin-2-yl)-1-methyl-6-oxo-1,4,5,6-tetrahydropyridazine-3-carboxamide] | – | –
21 | > 45 | > 45 | CC(=O)Nc1ccc(/C=C/c2cccc(Cl)c2)nn1 [Compound 394] | – | –
22 | 0.37 | > 45 | CNC(=O)c1ccnc(C(=O)Nc2ccc(Cc3cccc(F)c3)cn2)c1 [Compound 578] | – | –

Row | IC50 (human SCD5; [1]) [µM] | IC50 (human SCD1; [2]) [µM] | Compound | IC50 (human SCD5; SCD5 IC50) [µM] | IC50 (human SCD1; SCD1 IC50) [µM]
23 | 0.066 | > 45 | O=C(Nc1ccc(Cc2ccc(F)c(F)c2)cn1)c1cnc(Cl)cn1 [Compound 602] | – | –
24 | 6.75 | > 45 | O=C(Nc1ccc(Cc2cccc(Cl)c2)cn1)N1CCn2nccc2C1 [Compound 249] | – | –
25 | 0.28 | 0.37 | Cn1nccc(NC(=O)c2ccc(Cc3cccc(F)c3)cn2)c1=O [Compound 109, 5-(3-fluorobenzyl)-N-(2-methyl-3-oxo-2,3-dihydropyridazin-4-yl)picolinamide] | – | –
26 | 0.55 | > 45 | N#Cc1ncc(C(=O)Nc2ccc(Cc3ccc(F)c(F)c3)cn2)cn1 [Compound 525] | – | –
27 | 0.01 | 18 | N#Cc1ccc(NC(=O)c2ccc(Cc3ccc(F)c(F)c3)cn2)cn1 [Compound 542] | – | –
28 | 0.022 | 0.51 | Cn1cc(C(=O)Nc2ccc(Cc3cc(Cl)cc(C#N)c3)cn2)ccc1=O [Compound 618] | – | –
29 | 0.01 | 0.01 | Cn1cc(C(=O)Nc2ccc(Cc3cc(F)cc(F)c3)cn2)cn1 [Compound 315] | – | –
30 | 1.56 | 5.58 | Cn1nc(C(=O)Nc2ccc(Cc3cccc(Cl)c3)nn2)ccc1=O [Compound 196, N-(6-(3-chlorobenzyl)pyridazin-3-yl)-1-methyl-6-oxo-1,6-dihydropyridazine-3-carboxamide] | – | –
31 | 0.01 | 0.01 | Cn1cc(C(=O)Nc2ccc(Cc3cc(F)cc(Cl)c3)cn2)n(C)c1=O [Compound 668] | – | –
32 | – | – | Cn1cc(C(=O)Nc2ccc(Cc3cccc(F)c3)cn2)ccc1=O [Compound 55, N-(5-(3-fluorobenzyl)pyridin-2-yl)-1-methyl-6-oxo-1,6-dihydropyridine-3-carboxamide] | 0.16 | 1.21
33 | 0.01 | 2.07 | O=C(Nc1ccc(COc2cccc(Cl)c2)cn1)c1ccc(CO)nc1 [Compound 292] | – | –
34 | 2.3 | > 45 | Cn1nc(C(=O)Nc2ccc(Oc3cc(F)cc(F)c3)cn2)ccc1=O [Compound 573] | – | –
35 | 0.077 | 0.1 | CC(O)c1ccc(C(=O)Nc2ccc(Cc3cccc(Cl)c3)cn2)nc1 (centres unmarked) [Compound 510] | – | –
36 | – | – | O=C(Nc1ccc(Cc2cccc(Cl)c2)cn1)c1ccc(CO)cn1 [Compound 137, N-(5-(3-chlorobenzyl)pyridin-2-yl)-5-(hydroxymethyl)picolinamide] | 0.01 | 0.01
37 | > 45 | > 45 | Cn1cc(C(=O)NC2CCC(Oc3cccc(Cl)c3)CC2)ccc1=O (centres unmarked) [Compound 466] | – | –
38 | 0.38 | > 45 | O=C(Nc1ccc(Cc2ccc(F)c(F)c2)cn1)c1ccc(Cl)nn1 [Compound 585] | – | –
39 | 0.055 | 0.35 | O=C(Nc1ccc(Cc2cc(F)cc(Cl)c2)cn1)c1cnc(Cl)cn1 [Compound 659] | – | –
40 | > 45 | > 45 | COc1cc(Cc2cccc(Cl)c2)cnc1NC(=O)C1=NN(C)C(=O)CC1 [Compound 387] | – | –
41 | 0.062 | 0.68 | Cc1ncc(C(=O)Nc2ccc(Cc3cc(F)cc(F)c3)cn2)cn1 [Compound 581] | – | –
42 | 35.5 | > 45 | Cn1nc(C(=O)Nc2cnc(Cc3cccc(Cl)c3)nc2)ccc1=O [Compound 351] | – | –
43 | 3.96 | 4.06 | O=C(Nc1ccc(Cc2cccc(F)c2)nn1)c1ccc2nccn2n1 [Compound 238] | – | –
44 | 2.65 | > 45 | CN1N=C(C(=O)Nc2ccc(Cc3cccc(Cl)c3)cc2)CCC1=O [Compound 2, N-(4-(3-chlorobenzyl)phenyl)-1-methyl-6-oxo-1,4,5,6-tetrahydropyridazine-3-carboxamide] | – | –

Row | Compound | IC50 (human SCD5; [1]) [µM] | IC50 (human SCD1; [2]) [µM] | IC50 (human SCD5; SCD5 IC50) [µM] | IC50 (human SCD1; SCD1 IC50) [µM]
45 | CN1N=C(C(=O)Nc2ncc(Cc3cccc(Cl)c3)s2)CCC1=O [Compound 207, N-(5-(3-chlorobenzyl)thiazol-2-yl)-1-methyl-6-oxo-1,4,5,6-tetrahydropyridazine-3-carboxamide] | 0.01 | 0.09 | – | –
46 | Cn1nc(C(=O)Nc2ccc(Cc3ccc(Cl)cc3)cn2)ccc1=O [Example 36, N-(5-(4-chlorobenzyl)pyridin-2-yl)-1-methyl-6-oxo-1,6-dihydropyridazine-3-carboxamide] | 0.38 | 16.9 | – | –
47 | O=C(Nc1ccc(Cc2ccc(F)c(Cl)c2)cn1)c1ccc2nncn2c1 [Compound 148, N-(5-(3-chloro-4-fluorobenzyl)pyridin-2-yl)-[1,2,4]triazolo[4,3-a]pyridine-6-carboxamide] | 0.01 | 0.01 | – | –
48 | Cc1cnc(C(=O)Nc2ccc(Cc3ccc(F)c(Cl)c3)cn2)cn1 [Compound 138, N-(5-(3-chloro-4-fluorobenzyl)pyridin-2-yl)-5-methylpyrazine-2-carboxamide] | 0.08 | 0.55 | – | –
49 | CC(C)n1cc(C(=O)Nc2ccc(Cc3cccc(Cl)c3)cn2)ccc1=O [Compound 83, N-(5-(3-chlorobenzyl)pyridin-2-yl)-1-isopropyl-6-oxo-1,6-dihydropyridine-3-carboxamide] | – | > 45 | 0.42 | –
